{"source": "patent US4308269A", "about": "“Maytansinoids, pharmaceutical compositions thereof and method of use thereof” (Takeda Chemical Industries, Ltd., priority 1979, dated 1981)", "key": {"Tetrahymena pyriformis W": {"tested_on": "Tetrahymena pyriformis W", "assay": "Antiprotozoal activity, growth inhibition by the serial dilution method", "assay_type": "cell-based", "settings": "28° C., 44 to 48 hours, pH 7.0", "procedure": "Antioprotozoal activity of compound (I) was assayed with Tetrahymena pyriformis W as the test organism and a medium composed of 20 g tryptose-peptone (Difco Co.), 1 g yeast extract, 2 g glucose, 1000 ml distilled water, 10 ml 1 M phosphate buffer (pH 7.0) as the assay medium. The micoorganism was incubated at 28° C. for 44 to 48 hours and the growth inhibitory activity of compound (I) was assayed by the serial dilution method."}, "[1]": {"tested_on": "melanoma B-16 tumor cells", "assay": "Antitumor activity, B-16 melanoma transplanted intraperitoneally in mice (NCI protocol 1,300), life span prolongation", "assay_type": "in vivo", "settings": "intraperitoneally once daily for 9 consecutive days", "procedure": "Therapeutic tests were carried out in mice according to NCI-protocol 1,300, Cancer Chemother, Reports, Part 3, 1972, Vol. 3, No. 2, in which melanoma B-16 tumor cells had been intraperitoneally transplanted, compound (I) being administered intraperitoneally once daily for 9 consecutive days."}}, "data": [{"smiles": "COc1cc2cc(c1Cl)N(C)C(=O)CC(OC(=O)C(N)c1ccccc1)C1(C)OC1C(C)C1CC(O)(NC(=O)O1)C(OC)/C=C/C=C(\\C)C2", "note": "(single isomer, unassigned) [maytansinol 3-α-aminophenylacetate]", "values": [{"measurement": "MIC", "setting": "Tetrahymena pyriformis W", "result": "10 to 20", "unit": "µg/mL"}, {"measurement": "Antitumor activities B-16 (T/C%)", "setting": "[1]; dose 100 μg/kg", "result": 208, "unit": "%"}, {"measurement": "Antitumor activities B-16 (T/C%)", "setting": "[1]; dose 400 μg/kg", "result": 208, "unit": "%"}, {"measurement": "Antitumor activities B-16 (T/C%)", "setting": "[1]; dose 800 μg/kg", "result": 208, "unit": "%"}]}]}
